Measurements from US20040073074A1, “Method of continuous production of polyalkylbiphenyls” (priority 2002, published 2004).

Experiment: Confirmation of precipitation of 4,4′-diisopropylbiphenyl crystals on cooling
Type: physicochemical
Conditions: cooled to −10° C.
Description: (Confirmation of Precipitation of 4,4′-diisopropylbiphenyl Crystals)
Solutions each containing 4,4′-diisopropylbiphenyl in ratios of 15% by mass and 30% by mass in diisopropylbiphenyl were respectively prepared in an amount of 50 g. Each solution was cooled to −10° C. […] Therefore, as mentioned above, in the case where the content of diisopropylbiphenyl contained in the solution recovery from the tower top of the distillation tower is 7.6% by mass and this amount is 27.6% by mass of the amount of diisopropylbiphenyl measured at the outlet of the reactor, with the result that the amount of 4,4′-diisopropylbiphenyl in diisopropylbiphenyl as a product is 14.1% by mass, there is no particular problem as to the low-temperature characteristics of the product. However, if the amount of diisopropylbiphenyl contained in the solution recovery from the tower top of the distillation tower becomes increase and the amount of 4,4′-diisopropylbiphenyl in diisopropylbiphenyl as a product becomes increase, the low-temperature characteristics will deteriorate.

Question: What does the source list for CC(C)c1ccc(-c2ccc(C(C)C)cc2)cc1 [4,4′-diisopropylbiphenyl]?
Answer: precipitation of crystals (15% by mass in diisopropylbiphenyl): no precipitation of crystals was observed; precipitation of crystals (30% by mass in diisopropylbiphenyl): a large amount of 4,4′-diisopropylbiphenyl precipitated
